Legend:
[1] = system: carbapenem-resistant A. baumannii; test: Murine chronic burn-wound infection model; format: in vivo, mice; conditions: 30 mg kg^−1 topically for 5 days; untreated 8 log CFU g^−1
Procedure: Fig. 6 (A) Propensity of vancomycin and VanQAmC10 to induce resistance in MRSA upon serial exposure to sub-MIC concentrations; (B) (i) experimental design for in vivo efficacy study in a murine thigh infection model, (ii) in vivo efficacy of VanQAmC10 and vancomycin against the multidrug-resistant methicillin-resistant S. aureus (MRSA) (n = 3/dose). Antibiotics were administered intraperitoneally twice at 12 h intervals at a dose of 12 mg kg^−1. (C) (i) Experimental design for in vivo efficacy study in murine burn wound infection model, (ii) in vivo efficacy of VanQAmC10 and colistin against the carbapenem-resistant A. baumannii (n = 5/dose, 1 mouse died in untreated control). VanQAmC10 and colistin were treated topically at 30 mg kg^−1 for 5 days (‘***’ indicates p < 0.0001, ‘**’ indicates p < 0.001, ‘*’ p < 0.05, p = 0.08 (n.s.) for VanQAmC10 with respect to vancomycin).
Further, the efficacy of VanQAmC10 (8) was tested in a chronic burn-wound infection model of A. baumannii.[40] Chronic burn wounds on the back of mice were infected with A. baumannii. […] Infected mice were treated with 30 mg kg^−1 of VanQAmC10 and colistin for five days consecutively. The bacterial load in the untreated group increased to 8 log CFU g^−1 six days post-infection. […] The use of colistin is however limited due to its toxicity and bacteria easily develop resistance to it. […]

[2] = system: GFP-FtsI expressing E. coli; design: method as in PMID 19995973; conditions: known inhibitor of FtsI; 22 μM in Fig. 5C; cited from earlier work

Molecule	lower bacterial load as compared to the untreated mice [1]	phenotype and localization of GFP-FtsI [2]
colistin [reference compound]	4.8 log CFU g^−1	–
CC1=C(C(=O)O)N2C(=O)[C@@H](NC(=O)[C@H](N)c3ccccc3)[C@H]2SC1 [Cephalexin]	–	filamentous phenotype with mislocalized GFP-FtsI protein
